Measurements from ChEMBL document CHEMBL2429821, “A Casein kinase 1/Checkpoint kinase 1 pyrazolo-pyridine protein kinase inhibitor as novel activator of the p53 pathway” (Bioorg Med Chem Lett, 2013).

Columns and labels:
[1] = biological target: 3-phosphoinositide-dependent protein kinase 1 (Homo sapiens) (UniProt O15530); assay: Inhibition of human PDK1 assessed as residual activity at 1 uM relative to control
Rattus norvegicus = organism: Rattus norvegicus; assay: Inhibition of rat AMPK assessed as residual activity at 10 uM relative to control
[2] = biological target: T1, Serine/threonine-protein kinase TBK1 (Homo sapiens) (UniProt Q9UHD2); assay: Inhibition of human TBK1 assessed as residual activity at 10 uM relative to control
T1 sequence (whole entry): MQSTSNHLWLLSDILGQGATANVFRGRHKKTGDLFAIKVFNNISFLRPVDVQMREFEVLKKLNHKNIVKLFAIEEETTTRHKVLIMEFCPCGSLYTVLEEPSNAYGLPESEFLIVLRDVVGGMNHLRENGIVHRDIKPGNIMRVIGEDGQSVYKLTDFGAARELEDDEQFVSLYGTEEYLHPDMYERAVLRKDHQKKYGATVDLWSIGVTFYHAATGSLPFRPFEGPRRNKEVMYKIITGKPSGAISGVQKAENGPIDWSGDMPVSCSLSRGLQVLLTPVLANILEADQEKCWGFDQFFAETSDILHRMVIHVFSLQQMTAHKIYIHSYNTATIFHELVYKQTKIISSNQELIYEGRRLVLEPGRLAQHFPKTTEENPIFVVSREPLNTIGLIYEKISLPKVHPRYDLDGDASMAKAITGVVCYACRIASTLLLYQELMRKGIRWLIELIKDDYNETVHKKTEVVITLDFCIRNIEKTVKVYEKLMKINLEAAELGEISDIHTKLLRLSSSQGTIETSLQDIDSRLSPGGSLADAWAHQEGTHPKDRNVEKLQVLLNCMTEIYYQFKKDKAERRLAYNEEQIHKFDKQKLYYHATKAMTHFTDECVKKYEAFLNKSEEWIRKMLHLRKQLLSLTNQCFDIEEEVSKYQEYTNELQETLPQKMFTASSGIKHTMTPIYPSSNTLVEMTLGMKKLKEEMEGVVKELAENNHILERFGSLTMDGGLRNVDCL

[3] = biological target: Insulin receptor-related protein (Homo sapiens) (UniProt P14616); assay: Inhibition of human IRR assessed as residual activity at 10 uM relative to control
[4] = biological target: Casein kinase II (Homo sapiens) (UniProt P67870+P68400+P19784); assay: Inhibition of human CK2 assessed as residual activity at 1 uM relative to control; format: protein-complex assay
[5] = biological target: Mitogen-activated protein kinase 8 (Homo sapiens) (UniProt P45983); assay: Inhibition of human JNK1 assessed as residual activity at 1 uM relative to control
[6] = biological target: Tyrosine-protein kinase CSK (Homo sapiens) (UniProt P41240); assay: Inhibition of human CSK assessed as residual activity at 1 uM relative to control
[7] = biological target: Calcium/calmodulin-dependent protein kinase type 1 (Homo sapiens) (UniProt Q14012); assay: Inhibition of human CAMK1 assessed as residual activity at 1 uM relative to control
[8] = biological target: T2, Eukaryotic elongation factor 2 kinase (Homo sapiens) (UniProt O00418); assay: Inhibition of human EF2K assessed as residual activity at 1 uM relative to control
T2 sequence (whole entry): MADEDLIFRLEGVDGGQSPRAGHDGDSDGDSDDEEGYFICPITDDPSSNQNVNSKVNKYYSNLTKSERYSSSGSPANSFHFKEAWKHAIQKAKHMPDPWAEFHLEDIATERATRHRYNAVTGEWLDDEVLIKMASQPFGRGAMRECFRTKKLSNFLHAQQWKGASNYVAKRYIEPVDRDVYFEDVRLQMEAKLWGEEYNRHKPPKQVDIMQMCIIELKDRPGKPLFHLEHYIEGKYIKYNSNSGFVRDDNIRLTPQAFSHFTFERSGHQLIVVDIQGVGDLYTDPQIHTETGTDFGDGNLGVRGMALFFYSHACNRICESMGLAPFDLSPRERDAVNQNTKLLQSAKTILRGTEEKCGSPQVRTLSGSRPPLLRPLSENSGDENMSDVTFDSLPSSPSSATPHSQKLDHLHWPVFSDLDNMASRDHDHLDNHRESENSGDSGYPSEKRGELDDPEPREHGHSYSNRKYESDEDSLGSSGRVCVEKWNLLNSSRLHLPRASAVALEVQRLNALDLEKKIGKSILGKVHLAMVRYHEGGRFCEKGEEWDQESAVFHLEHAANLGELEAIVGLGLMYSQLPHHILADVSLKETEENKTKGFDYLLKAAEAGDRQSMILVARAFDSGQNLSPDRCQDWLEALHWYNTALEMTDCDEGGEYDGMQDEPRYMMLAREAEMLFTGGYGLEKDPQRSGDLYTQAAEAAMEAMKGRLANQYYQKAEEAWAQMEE

[9] = biological target: Tyrosine-protein kinase SYK (Homo sapiens) (UniProt P43405); assay: Inhibition of human SYK assessed as residual activity at 10 uM relative to control
[10] = biological target: Dual specificity tyrosine-phosphorylation-regulated kinase 1A (Rattus norvegicus) (UniProt Q63470); assay: Inhibition of rat DYRK1alpha assessed as residual activity at 1 uM relative to control
[11] = biological target: Ephrin type-A receptor 2 (Homo sapiens) (UniProt P29317); assay: Inhibition of human EPHA2 assessed as residual activity at 10 uM relative to control
[12] = biological target: Maternal embryonic leucine zipper kinase (Homo sapiens) (UniProt Q14680); assay: Inhibition of human MELK assessed as residual activity at 10 uM relative to control
Maternal embryonic leucine zipper kinase (Homo sapiens), sequence (Q14680 whole entry, looked up): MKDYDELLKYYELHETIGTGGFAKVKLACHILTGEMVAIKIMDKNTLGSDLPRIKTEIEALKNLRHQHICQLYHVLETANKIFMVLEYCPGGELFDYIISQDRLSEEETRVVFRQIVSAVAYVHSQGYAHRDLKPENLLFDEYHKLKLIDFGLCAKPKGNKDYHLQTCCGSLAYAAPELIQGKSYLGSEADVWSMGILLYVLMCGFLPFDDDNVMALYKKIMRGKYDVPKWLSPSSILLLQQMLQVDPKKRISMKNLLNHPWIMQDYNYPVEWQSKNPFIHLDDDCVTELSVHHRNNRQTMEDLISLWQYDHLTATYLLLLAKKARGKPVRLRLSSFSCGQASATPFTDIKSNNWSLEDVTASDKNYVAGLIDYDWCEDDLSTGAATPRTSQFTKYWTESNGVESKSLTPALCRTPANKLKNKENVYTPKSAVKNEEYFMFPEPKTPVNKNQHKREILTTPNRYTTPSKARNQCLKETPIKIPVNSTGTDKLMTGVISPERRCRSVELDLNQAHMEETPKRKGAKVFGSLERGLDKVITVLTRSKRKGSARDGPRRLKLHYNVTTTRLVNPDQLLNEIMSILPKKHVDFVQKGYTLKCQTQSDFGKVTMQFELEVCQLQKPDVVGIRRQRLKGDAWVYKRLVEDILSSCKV

Insulin receptor-related protein (Homo sapiens), sequence (P14616 27-742 limits assumed): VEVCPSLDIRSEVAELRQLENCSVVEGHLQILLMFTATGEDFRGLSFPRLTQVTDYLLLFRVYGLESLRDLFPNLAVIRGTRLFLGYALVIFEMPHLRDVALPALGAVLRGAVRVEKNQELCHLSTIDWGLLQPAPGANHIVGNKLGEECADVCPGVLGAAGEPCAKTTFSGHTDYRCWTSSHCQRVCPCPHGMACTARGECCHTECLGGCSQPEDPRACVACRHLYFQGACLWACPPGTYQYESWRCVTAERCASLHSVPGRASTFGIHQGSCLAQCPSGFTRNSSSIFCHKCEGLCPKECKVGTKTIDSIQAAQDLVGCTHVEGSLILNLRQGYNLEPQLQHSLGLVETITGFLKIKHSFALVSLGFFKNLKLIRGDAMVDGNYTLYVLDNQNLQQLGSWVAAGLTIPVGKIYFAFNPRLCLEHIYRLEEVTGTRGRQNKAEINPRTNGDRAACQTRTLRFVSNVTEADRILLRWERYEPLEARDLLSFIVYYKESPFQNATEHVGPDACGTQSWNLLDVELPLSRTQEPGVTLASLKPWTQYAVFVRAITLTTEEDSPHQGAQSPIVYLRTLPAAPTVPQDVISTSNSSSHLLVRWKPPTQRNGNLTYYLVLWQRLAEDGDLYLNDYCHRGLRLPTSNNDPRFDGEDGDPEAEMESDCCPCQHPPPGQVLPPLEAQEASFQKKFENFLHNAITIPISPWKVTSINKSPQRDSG
Insulin receptor-related protein (Homo sapiens), sequence (P14616 747-1297 limits assumed): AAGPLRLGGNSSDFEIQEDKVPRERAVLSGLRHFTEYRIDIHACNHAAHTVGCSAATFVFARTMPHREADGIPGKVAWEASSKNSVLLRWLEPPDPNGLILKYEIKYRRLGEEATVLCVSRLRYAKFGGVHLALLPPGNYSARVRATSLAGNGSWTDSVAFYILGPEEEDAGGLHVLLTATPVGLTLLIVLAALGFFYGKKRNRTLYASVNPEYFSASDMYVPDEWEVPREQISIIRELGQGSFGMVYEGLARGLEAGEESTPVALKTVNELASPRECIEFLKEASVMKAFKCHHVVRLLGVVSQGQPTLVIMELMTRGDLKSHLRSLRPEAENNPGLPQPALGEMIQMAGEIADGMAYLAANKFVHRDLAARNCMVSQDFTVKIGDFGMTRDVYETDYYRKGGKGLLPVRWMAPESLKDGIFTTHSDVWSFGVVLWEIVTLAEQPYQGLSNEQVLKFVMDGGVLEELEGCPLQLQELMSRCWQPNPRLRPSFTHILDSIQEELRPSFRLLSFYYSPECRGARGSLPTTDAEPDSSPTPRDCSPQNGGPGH
3-phosphoinositide-dependent protein kinase 1 (Homo sapiens), sequence (O15530 whole entry, looked up): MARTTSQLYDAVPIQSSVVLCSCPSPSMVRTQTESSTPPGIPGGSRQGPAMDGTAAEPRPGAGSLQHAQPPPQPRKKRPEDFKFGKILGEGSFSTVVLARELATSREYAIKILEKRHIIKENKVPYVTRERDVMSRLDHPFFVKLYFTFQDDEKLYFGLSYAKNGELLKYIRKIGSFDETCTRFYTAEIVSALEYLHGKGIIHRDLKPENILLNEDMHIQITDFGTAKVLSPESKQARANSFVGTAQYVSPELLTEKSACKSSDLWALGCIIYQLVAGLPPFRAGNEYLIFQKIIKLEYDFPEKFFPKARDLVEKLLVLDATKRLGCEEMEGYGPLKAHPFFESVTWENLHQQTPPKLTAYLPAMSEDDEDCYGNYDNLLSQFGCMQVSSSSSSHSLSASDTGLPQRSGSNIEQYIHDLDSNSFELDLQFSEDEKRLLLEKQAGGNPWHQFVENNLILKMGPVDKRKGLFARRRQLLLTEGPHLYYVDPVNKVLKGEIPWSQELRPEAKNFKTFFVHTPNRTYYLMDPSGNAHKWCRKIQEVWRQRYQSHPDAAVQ
Calcium/calmodulin-dependent protein kinase type 1 (Homo sapiens), sequence (Q14012 whole entry, looked up): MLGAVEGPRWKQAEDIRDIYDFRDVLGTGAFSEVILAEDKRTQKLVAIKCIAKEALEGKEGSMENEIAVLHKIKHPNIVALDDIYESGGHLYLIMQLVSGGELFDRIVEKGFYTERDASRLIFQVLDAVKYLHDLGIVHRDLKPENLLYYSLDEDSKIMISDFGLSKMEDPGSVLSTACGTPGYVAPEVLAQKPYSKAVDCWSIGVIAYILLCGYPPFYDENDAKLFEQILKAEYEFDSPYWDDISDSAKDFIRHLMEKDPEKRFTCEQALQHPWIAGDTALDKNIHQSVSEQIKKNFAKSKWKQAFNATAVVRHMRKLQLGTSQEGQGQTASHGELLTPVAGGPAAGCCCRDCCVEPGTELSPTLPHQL
Mitogen-activated protein kinase 8 (Homo sapiens), sequence (P45983 whole entry): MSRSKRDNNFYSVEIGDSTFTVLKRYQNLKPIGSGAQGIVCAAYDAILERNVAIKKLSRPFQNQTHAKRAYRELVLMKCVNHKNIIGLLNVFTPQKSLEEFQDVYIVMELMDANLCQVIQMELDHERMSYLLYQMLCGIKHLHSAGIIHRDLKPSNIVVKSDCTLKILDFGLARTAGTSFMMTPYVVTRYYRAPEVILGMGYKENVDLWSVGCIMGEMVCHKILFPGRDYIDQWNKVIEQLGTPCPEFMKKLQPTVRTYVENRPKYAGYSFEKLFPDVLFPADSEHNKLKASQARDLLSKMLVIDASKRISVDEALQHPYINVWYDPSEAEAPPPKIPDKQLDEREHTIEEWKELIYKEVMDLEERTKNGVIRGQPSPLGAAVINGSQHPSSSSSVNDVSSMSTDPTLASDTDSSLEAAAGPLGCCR
Tyrosine-protein kinase CSK (Homo sapiens), sequence (P41240 2-450 limits assumed): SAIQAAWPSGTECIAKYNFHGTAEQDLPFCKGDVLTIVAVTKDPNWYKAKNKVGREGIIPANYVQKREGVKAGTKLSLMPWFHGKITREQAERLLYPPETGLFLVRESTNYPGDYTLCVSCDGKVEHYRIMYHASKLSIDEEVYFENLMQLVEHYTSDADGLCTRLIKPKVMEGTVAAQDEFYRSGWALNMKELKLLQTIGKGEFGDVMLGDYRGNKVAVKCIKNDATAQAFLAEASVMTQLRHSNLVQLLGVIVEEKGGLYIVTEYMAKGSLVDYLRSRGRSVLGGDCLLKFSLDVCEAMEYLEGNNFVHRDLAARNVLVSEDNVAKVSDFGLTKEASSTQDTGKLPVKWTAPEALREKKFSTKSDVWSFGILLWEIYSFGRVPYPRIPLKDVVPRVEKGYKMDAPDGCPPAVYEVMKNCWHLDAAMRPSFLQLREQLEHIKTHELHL
Ephrin type-A receptor 2 (Homo sapiens), sequence (P29317 whole entry): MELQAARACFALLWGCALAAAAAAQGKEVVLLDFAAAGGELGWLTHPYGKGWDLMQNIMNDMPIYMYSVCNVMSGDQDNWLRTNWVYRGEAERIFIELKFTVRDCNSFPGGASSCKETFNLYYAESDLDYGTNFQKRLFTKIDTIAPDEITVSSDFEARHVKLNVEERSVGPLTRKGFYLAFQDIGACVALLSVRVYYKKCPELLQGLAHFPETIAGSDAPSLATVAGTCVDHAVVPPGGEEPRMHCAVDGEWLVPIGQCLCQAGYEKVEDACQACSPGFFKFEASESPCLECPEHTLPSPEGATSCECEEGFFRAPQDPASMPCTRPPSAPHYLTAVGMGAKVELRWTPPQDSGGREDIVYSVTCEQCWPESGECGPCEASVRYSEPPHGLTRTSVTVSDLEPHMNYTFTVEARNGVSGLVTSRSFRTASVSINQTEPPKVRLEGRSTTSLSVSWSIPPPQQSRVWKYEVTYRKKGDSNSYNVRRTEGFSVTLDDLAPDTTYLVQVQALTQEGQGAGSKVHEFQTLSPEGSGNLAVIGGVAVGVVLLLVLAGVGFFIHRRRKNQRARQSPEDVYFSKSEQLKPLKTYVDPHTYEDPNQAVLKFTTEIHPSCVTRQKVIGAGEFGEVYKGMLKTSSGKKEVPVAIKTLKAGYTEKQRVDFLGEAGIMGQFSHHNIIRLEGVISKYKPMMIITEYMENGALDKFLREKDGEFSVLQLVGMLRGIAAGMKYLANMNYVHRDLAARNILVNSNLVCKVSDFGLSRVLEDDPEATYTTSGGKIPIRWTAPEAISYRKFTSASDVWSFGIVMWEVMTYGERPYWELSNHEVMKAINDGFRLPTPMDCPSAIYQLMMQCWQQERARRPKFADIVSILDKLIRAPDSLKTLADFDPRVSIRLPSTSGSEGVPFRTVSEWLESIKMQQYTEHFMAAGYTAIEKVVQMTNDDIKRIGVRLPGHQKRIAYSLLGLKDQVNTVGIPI

Activity [1] [%] | Activity (Rattus norvegicus) [%] | Activity [2] [%] | Activity [3] [%] | Activity [4] [%] | Activity [5] [%] | Activity [6] [%] | Activity [7] [%] | Activity [8] [%] | Activity [9] [%] | Activity [10] [%] | Activity [11] [%] | Activity [12] [%] | SMILES
108 | 105 | 70 | 58 | 82 | 97 | 91 | 93 | 106 | 104 | 5 | 88 | 64 | CCCC(=O)Nc1n[nH]c2ncc(-c3cccnc3)cc12
91.4 | 101 | 105 | 81.4 | 79.3 | 67 | 93.4 | 103 | 83.2 | 98.7 | 91.9 | 91.9 | 106 | CC(=O)Nc1nccc(-c2c(-c3ccccc3)noc2C)n1
95.8 | 69.9 | 48.2 | 48.8 | 102 | 93.3 | 95.3 | 111 | 112 | 55.9 | 76.2 | 69.5 | 38.9 | CC(=O)Nc1cccc(-c2cnc3[nH]nc(C)c3c2)c1
